Data on eight molecules can be found in patent publication US11015215B2, “Use of high flux SCFA-derivatized monosaccharides in recombinant glycoprotein production” (The Johns Hopkins University, priority 2014, dated 2021).

Molecules are shown by their SMILES.

Data set [1] concerns host cells. To be noted: cited from earlier work; for side effects (e.g., cytotoxicity): compared to perbutanoylated, 3,4,6-tributanoylated or peracetylated counterparts; for cytotoxicity over prolonged exposure: beyond 2 to 3 days, up to and within two weeks.
A further data set concerns GalNAc salvage pathway. To be noted: cited from earlier work.
The subject of data set [2] is hexosamine biosynthetic pathway. The note with it: cited from earlier work.
For the next data set, the system named is cell surface sialylation. Briefly: Overall sialylation of cell surface glycoconjugates after analog supplementation. Type of data set: cell-based.
For another data set, the system named is sialic acid pathway. The note with it: cited from earlier work; for efficiency relative to the unmodified sugar: sialic acid production as endpoint.
In data set [3] the test system is individual sites of N-glycosylation. To be noted: cited from earlier work.
Data set [4] has as its system human protein integrin α4 stably expressed in a CHO line. Briefly: Azido-sugar labeling of integrin α4 in CHO cells (click biotinylation, streptavidin blot). The data set is classed as cell-based. To be noted: 100 μM, 24 hours. As to the method:
Whole cell lysate from cells treated with 100 μM 1,3,4-O-Bu3ManNAz for 24 hours and “click” chemistry biotinylated were probed with streptavidin (lane 1), and from the same whole cell lysate, integrin α4β1 was immunopurified using human […] antibody and probed with streptavidin (lane 2). Immunopurified integrin α4β1 was again incubated with the human anti-MUC1 antibody and re-purified (lane 3). The band in lane 4 was the same sample as lane 3 but probed with anti-human integrin α4.
FIG. 2 depicts the result of treating the sample of FIG. 1, lane 3, with PNGAse F and sialidase, with samples then visualized using streptavidin HRP.
The use of tri-butanoylated monosaccharides was examined, initially using 1,3,4-O-Bu3ManNAz to label integrin α4 in CHO cells.

Data set [5] relates to host cells. The note with it: cited from earlier work.

For `CCCC(=O)OC1OC(CO)[C@H](OC(=O)CCC)[C@H](OC(=O)CCC)C1NC(C)=O` (stereo partly shown) [1,3,4-O-Bu3GalNAc], the “side effects (e.g., cytotoxicity)” value in the data set on host cells [1] is “minimal side effects”. Also, the “flux into the GalNAc salvage pathway” value in the data set on GalNAc salvage pathway is on record as “high levels of flux”.
As for `CCCC(=O)OC1OC(CO)[C@@H](OC(=O)CCC)[C@H](OC(=O)CCC)C1NC(C)=O` (stereo partly shown) [1,3,4-O-Bu3GlcNAc], the “side effects (e.g., cytotoxicity)” value with host cells [1] is given as “minimal side effects”. The “flux into the hexosamine biosynthetic pathway” value in data set [2] was “high levels of flux”.
As for `CCCC(=O)OC1OC(CO)[C@@H](OC(=O)CCC)[C@H](OC(=O)CCC)C1NC(C)=O` (stereo partly shown) [1,3,4-O-Bu3ManNAc, tri-butanoylated ManNAc], the “increase in overall sialylation (cell surface / glycoconjugates)” value (“increase … (cell surface / glycoconjugates)” below) in the data set with cell surface sialylation was 50 to 75%. Also, in the data set on sialic acid pathway, the “flux into the sialic acid pathway” value is on record as “high levels of flux”. Besides, the whole molecule toxicity entry in the data set with host cells [1] is given as “lack “whole molecule” toxicity”. Besides, in the data set with host cells [1] (in most cell lines), the growth inhibition entry is on record as “mild growth inhibition”. For the same molecule, in data set [3] (about ⅓ of sites), the “increase in sialylation, about ⅓ of glycosylation sites with dramatic increases” value was at least 8 fold; the “increase in sialylation, about ⅓ of glycosylation sites with modest increase” value is at most 2 fold; the “level of sialylation, about ⅓ of glycosylation sites that did not respond” value was “remained unchanged”. In addition, the “increase in degree of sialylation of specific N-glycans” value in data set [3] is at least 8 fold.
For `CCCC(=O)OC1OC(CO)[C@@H](OC(=O)CCC)[C@H](OC(=O)CCC)C1NC(=O)CN=[N+]=[N-]` (stereo partly shown) [1,3,4-O-Bu3ManNAz], the “labeling of integrin α4” value in data set [4] is “definitive labeling”.
For `CC(=O)NC1C(OC(C)=O)OC(COC(C)=O)[C@@H](OC(C)=O)[C@@H]1OC(C)=O` (stereo partly shown) [Ac4ManNAc, peracetylated ManNAc], the “increase … (cell surface / glycoconjugates)” value in the data set on cell surface sialylation is recorded as 10 to 25%. In addition, the “efficiency relative to the unmodified sugar” value in the data set on sialic acid pathway was “several hundred fold more efficient”. For the same molecule, the “cytotoxicity over prolonged exposure” value with host cells [1] was “cytotoxicity over prolonged exposure to cells”.
Regarding `CCCC(=O)OCC1OC(OC(=O)CCC)C(NC(C)=O)[C@@H](OC(=O)CCC)[C@@H]1OC(=O)CCC` (stereo partly shown) [Bu4ManNAc, perbutanoylated ManNAc, reference compound], the “efficiency relative to the unmodified sugar” value in the data set on sialic acid pathway is ~2,100 fold. In the data set on host cells [1], the “cytotoxicity over prolonged exposure” value is “host cells died”. The “effect on cell growth” value in the data set with host cells [1] (within 2 or 3 days of treatment) is “slowed cell growth”.
As to `CC(=O)NC1C(O)OC(CO)[C@@H](O)[C@@H]1O` (stereo partly shown) [ManNAc], in the data set with cell surface sialylation, the “increase … (cell surface / glycoconjugates)” value is on record as 5 to 10%. For the same molecule, the “concentration supplemented to the cell culture media for a robust increase in sialic acid production” value with sialic acid pathway is on record as “up to 50 mM”.
As to `CCCC(=O)O.COc1cccc(C#CCON=C2CN3CCC2C3)c1` (stereo not shown) [n-butyrate], the “concentration required to elicit desired cell responses” value in the data set on host cells [5] is at least 10 mM.
